Patent US6069232A, “Polyfluoroalkyl tryptophan tripeptide thrombin inhibitors” (Hoechst Marion Roussel, Inc., priority 1996, dated 2000)

Columns and labels:
aPTT in rat plasma = assay: In vivo measurement of aPTT in rat plasma after injection; conditions: n = 2
Description: Activated partial thromboplastin time (aPTT) measurements were made in rat plasma at various times after injecting the animals with TFA·HNMe-D-Phe-L-Pro-D,L-Trp--CF2 CF3. Male Sprague-Dawley rats (200-450 g) purchased from Harlan Sprague Dawley, Inc., (Indianapolis, Ind. 46229) are used in these studies. […]

clotting time (aPTT) = assay: Coagulation assay: activated partial thromboplastin time (aPTT), concentration doubling the clotting time; set-up: species or system rat; conditions: calculated by simple linear regression
Protocol: Male Sprague-Dawley rats (200-450 gm) purchased from Harlan Sprague Dawley, Inc., (Indianapolis, Ind. 46229) were used in these studies.
Activated partial thromboplastin time (aPTT) determinations are carried out using the reagents and methods of Dade Diagnostics, Inc. (Aguada, Puerto Rico 00602). All clotting times were measured semiautomatically using a MLA-Electra 750, MLA, Inc. (Pleasantville, N.Y. 10570). The concentration required for doubling the clotting time (ID2) was calculated using simple linear regression.

Thrombin = target: T1, Thrombin (Homo sapiens, UniProt P00734); assay: Thrombin inhibition, spectrophotometric assay (p-nitroaniline liberation); format: biochemical; conditions: thrombin from human plasma; substrate Sarcosyl-Proline-Arginine-p-nitroanilide; 0.1M Tris pH 7.4; 30° C.
T1 construct: Thrombin is obtained from human plasma; purchased Sigma Chemical Co; host or cells: human plasma
Protocol: Chem., 329, p. 278 (1962), in which the liberation of p-nitroaniline is determined by measuring the increase in absorbance at 405 nm (ε=10800M^-1 cm^-1). Thrombin is obtained from human plasma, available from Sigma Chemical Co. wherein the activity is expressed in NIH units. One vial contains 290 units (specific activity=3000 units per mg of protein) as a lyophilized powder which is reconstituted with 1 mL of water. The substrate is the chromophoric peptide, Sarcosyl-Proline-Arginine-p-nitroanilide (Km =0.9 mM), the buffer is 0.1M Tris, pH 7.4 (final volume 1 mL) and the assay is carried out at a temperature of about 30° C. with 0.029 NIH units of enzyme required per assay. Kinetic characterization of immediate inhibitors is by means of the Dixon plot, whereas the characterization of slow- and/or tight-binding inhibitors uses data analysis techniques reviewed by Williams and Morrison. Kinetic characterization of time dependent inhibitors is by means of a Kitz & Wilson plot, Kitz R. and Wilson I. B., J. Biol. Chem., 237, 3245-3249 (1962).

Trypsin = target: T2, Trypsin (Sus scrofa, UniProt P00761); assay: Trypsin inhibition, spectrophotometric assay (p-nitroaniline liberation); format: biochemical; conditions: trypsin from porcine pancreas; substrate Benzoyl-Arginine-p-nitroanilide; 0.05M Tris, 0.05M CaCl2, pH 7.8; 30° C.
T2 construct: Trypsin is obtained from porcine pancreas; purchased Sigma Chemical Co; host or cells: porcine pancreas
T2 sequence (P00761 9-231): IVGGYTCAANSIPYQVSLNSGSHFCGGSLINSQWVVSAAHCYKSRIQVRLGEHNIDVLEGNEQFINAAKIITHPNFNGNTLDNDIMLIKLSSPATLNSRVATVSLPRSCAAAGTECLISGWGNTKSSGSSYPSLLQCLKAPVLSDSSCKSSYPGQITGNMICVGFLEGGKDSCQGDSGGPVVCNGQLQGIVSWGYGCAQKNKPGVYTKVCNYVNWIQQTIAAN
Protocol: Chem., 329, p. 278 (1962), immediately described above. Trypsin is obtained from porcine pancreas, available from Sigma Chemical Co. wherein the activity is expressed in Sigma units. The specific activity of the trypsin source is 15900 Sigma units per mg of protein where one unit is defined as the amount of enzyme that gives an increase in absorbance at 253 nm of 0.001 per min as the result of the hydrolysis of Benzoyl-Arginine-Ethylester, at pH 7.6 and 25° C. The substrate is the peptide Benzoyl-Arginine-p-nitroanilide (KM =[…]), the buffer is 0.05M Tris, 0.05M CaCl2, pH 7.8 (final volume 1 mL) and the assay is carried out at a temperature of 30° C. with 8 Sigma units of enzyme required per assay. Kinetic characterization of immediate inhibitors is by means of the Dixon plot, whereas the characterization of slow- and/or tight-binding inhibitors uses data analysis techniques reviewed by Williams and Morrison. Kinetic characterization of time dependent inhibitors is by means of a Kitz & Wilson plot.

CN[C@H](Cc1ccccc1)C(=O)N1CCC[C@H]1C(=O)NC(Cc1c[nH]c2ccccc12)C(=O)C(F)(F)C(F)(F)F.O=C(O)C(F)(F)F (stereo partly drawn) [TFA.HNMe-D-Phe-L-Pro-D,L-Trp-CF2 CF3, L-Prolinamide, N-methyl-D-phenylalanyl-N-[3,3,4,4,4-pentafluoro-1-(1H-indol-3-ylmethyl)-2-oxobutyl]-, mono(trifluoroacetate)]
aPTT (aPTT in rat plasma; 5 mg/kg i.v., 0 min. after dosing): 21.2 s | aPTT (aPTT in rat plasma; 5 mg/kg i.v., 5 min. after dosing): 19.0 s | aPTT (aPTT in rat plasma; 5 mg/kg i.v., 15 min. after dosing): 22.7 s | aPTT (aPTT in rat plasma; 5 mg/kg i.v., 30 min. after dosing): 18.6 s | aPTT (aPTT in rat plasma; 5 mg/kg i.v., 60 min. after dosing): 17.6 s | aPTT (aPTT in rat plasma; 10 mg/kg i.v., 0 min. after dosing): 18.8 s | aPTT (aPTT in rat plasma; 10 mg/kg i.v., 5 min. after dosing): 17.4 s | aPTT (aPTT in rat plasma; 10 mg/kg i.v., 15 min. after dosing): 18.0 s | aPTT (aPTT in rat plasma; 10 mg/kg i.v., 30 min. after dosing): 15.7 s | aPTT (aPTT in rat plasma; 10 mg/kg i.v., 60 min. after dosing): 12.6 s | aPTT (aPTT in rat plasma; 30 mg/kg i.p., 0 min. after dosing): 19.2 s | aPTT (aPTT in rat plasma; 30 mg/kg i.p., 5 min. after dosing): 20.8 s | aPTT (aPTT in rat plasma; 30 mg/kg i.p., 15 min. after dosing): 19.2 s | aPTT (aPTT in rat plasma; 30 mg/kg i.p., 30 min. after dosing): 19.4 s | aPTT (aPTT in rat plasma; 30 mg/kg i.p., 60 min. after dosing): 18.7 s | ID2 (concentration required for doubling the clotting time) (clotting time (aPTT)): 44.9 µM | Ki (Thrombin): 450 nM | Ki (Trypsin): ~100 µM
